In patent publication US20240246940A1, “HETEROARYL DERIVATIVE COMPOUND AND USE THEREOF” (VORONOI INC., priority 2021, published 2024):

Assays:
[1] = system: SK-BR-3 cells (HER2 overexpressing cell line); assay: SK-BR-3 cell proliferation inhibitory activity (CellTiter-Glo, 120 hours); format: cell-based; conditions: Homo sapiens
Procedure: (§1) To evaluate the cell proliferation inhibitory activity of the compound according to the present invention on HER2 and EGFR kinases, the following method was performed using HER2 overexpressing cell lines (SK-BR-3, BT-474, and N-87) and EGFR expressing cell line (HaCaT).
(§2) McCOY'S 5A supplemented with 10% FBS was used for SK-BR-3 cells, RPMI-1640 medium supplemented with 20% FBS was used for BT-474 cancer cells, and RPMI-1640 medium supplemented with 10% FBS was used for N-87 cancer cells. DMEM supplemented with 10% FBS was used for HaCaT cells.
(§3) For SK-BR-3 cells, 5000 cells were aliquoted into each well of a white clear bottom 96 well plate (Corning) 48 hours before treatment with the compounds of Examples. For BT-474 cells, 5000 cells were aliquoted into each well of a white clear bottom 96 well plate (Corning) 48 hours before treatment with the compounds of Examples. For N-87 cells, 5000 cells were aliquoted into each well of a white clear bottom 96 well plate (Corning) 24 hours before treatment with the compounds of Examples. For HaCaT cells, 3000 cells were aliquoted into each well of a white clear bottom 96 well plate (Corning) 24 hours before treatment with the compounds of Examples. For SK-BR-3 cells and BT-474 cells, the compounds of Examples were diluted in dimethyl sulfoxide (three-fold dilution, a total of 11 concentrations) and injected each in an amount of 1 μl to a final concentration of 0.2 nM to 10 μM. For N-87 cells, the compounds of Examples were diluted in dimethyl sulfoxide (five-fold dilution, a total of 11 concentrations) and injected each in an amount of 0.5 μl to a final concentration of […] to 5 μM. For HaCaT cells, the compounds of Examples were diluted in dimethyl sulfoxide (three-fold dilution, a total of 11 concentrations) and injected each in an amount of 0.5 μl to a final concentration of 0.8 nM to 45 μM. For the measurement of living cells, the cells were stored at room temperature for 10 minutes using CellTiter-Glo cell viability reagent (Promega) after a certain period of time (SK-BR-3: 120 hours, BT-474: 120 hours, N-87: 72 hours, and HaCaT: 72 hours) post treatment with the compounds of Examples, and the luminescence intensity thereof was measured using a reader (SynergyNeo, Biotek). Each test was repeated three times.
(§4) The result values were calculated as a cell growth rate (%) compared to those of the control group. A graph was created using the GraphPad Prism version 5.0 program, and GI50 values were calculated.

[2] = system: HaCaT cells (EGFR expressing cell line); assay: HaCaT cell proliferation inhibitory activity (CellTiter-Glo, 72 hours); format: cell-based; conditions: Homo sapiens
Procedure: as §1, §2, §3, §4

SMILES | GI50 [1] [nM] | GI50 [2] [nM]
C=CC(=O)N1CC(Oc2cc3c(Nc4cc(-c5cccn6ccnc56)ccc4OC)ncnc3cc2OC)C1 [Example 35, 1-(3-((4-((5-(imidazo[1,2-a]pyridin-8-yl)-2-methoxyphenyl)amino)-7-methoxy-quinazolin-6-yl)oxy)azetidin-1-yl)prop-2-en-1-one] | ≤ 150 | 150 to 1000
C=CC(=O)N1CC(Oc2cc3c(Nc4cc(-c5cccc6ncsc56)ccc4OC)ncnc3cc2OC)C1 [Example 36, 1-(3-((4-((5-(benzo[d]thiazol-7-yl)-2-methoxyphenyl)amino)-7-methoxy-quinazolin-6-yl)oxy)azetidin-1-yl)prop-2-en-1-one] | 150 to 1000 | 150 to 1000
C=CC(=O)N1CC(Oc2cc3c(Nc4cc(-c5cnn6cccnc56)ccc4OC)ncnc3cc2OC)C1 [Example 39, 1-(3-((7-methoxy-4-((2-methoxy-5-(pyrazolo[1,5-a]pyrimidin-3-yl)phenyl)amino)quinazolin-6-yl)oxy)azetidin-1-yl)prop-2-en-1-one] | 150 to 1000 | 150 to 1000
C=CC(=O)N1CC(Oc2cc3c(Nc4cc(-c5coc6ccccc56)ccc4OC)ncnc3cc2OC)C1 [Example 40, 1-(3-((4-((5-(benzofuran-3-yl)-2-methoxyphenyl)amino)-7-methoxy-quinazolin-6-yl)oxy)azetidin-1-yl)prop-2-en-1-one] | 150 to 1000 | ≤ 150
C=CC(=O)N1CC(Oc2cc3c(Nc4cc(-c5csc6ccccc56)ccc4OC)ncnc3cc2OC)C1 [Example 41, 1-(3-((4-((5-(benzo[b]thiophen-3-yl)-2-methoxyphenyl)amino)-7-methoxy-quinazolin-6-yl)oxy)azetidin-1-yl)prop-2-en-1-one] | ≤ 150 | ≤ 150
C=CC(=O)N1CC(Oc2cc3c(Nc4cc(-c5cccs5)c(C)cc4OC)ncnc3cc2OC)C1 [Example 52, 1-(3-((7-methoxy-4-((2-methoxy-4-methyl-5-(thiophen-2-yl)phenyl)amino)quinazolin-6-yl)oxy)azetidin-1-yl)prop-2-en-1-one] | ≤ 150 | ≤ 150
C=CC(=O)N1CC(Oc2cc3c(Nc4cc(-c5cccs5)ccc4OCC)ncnc3cc2OC)C1 [Example 54, 1-(3-((4-((2-ethoxy-5-(thiophen-2-yl)phenyl)amino)-7-methoxy-quinazolin-6-yl)oxy)azetidin-1-yl)prop-2-en-1-one] | ≤ 150 | ≤ 150
C=CC(=O)N1CC(Oc2cc3c(Nc4cc(-c5ccco5)ccc4OCC)ncnc3cc2OC)C1 [Example 55, 1-(3-((4-((2-ethoxy-5-(furan-2-yl)phenyl)amino)-7-methoxy-quinazolin-6-yl)oxy)azetidin-1-yl)prop-2-en-1-one] | ≤ 150 | ≤ 150

The next lines start with results.

GI50 [1] [nM] | SMILES | GI50 [2] [nM]
≤ 150 | C=CC(=O)N1CC(Oc2cc3c(Nc4cc(-c5ccc(F)c(F)c5)ccc4OC)ncnc3cc2OC)C1 [Example 29, 1-(3-((4-((3′,4′-difluoro-4-methoxy-[1,1′-biphenyl]-3-yl)amino)-7-methoxy-quinazolin-6-yl)oxy)azetidin-1-yl)prop-2-en-1-one] | ≤ 150
150 to 1000 | C=CC(=O)N1CC(Oc2cc3c(Nc4cc(-c5ccc6ncnn6c5)ccc4OC)ncnc3cc2OC)C1 [Example 31, 1-(3-((4-((5-([1,2,4]triazolo [1,5-a]pyridin-6-yl)-2-methoxyphenyl)amino)-7-methoxy-quinazolin-6-yl)oxy)azetidin-1-yl)prop-2-en-1-one] | > 1000
> 1000 | C=CC(=O)N1CC(Oc2cc3c(Nc4cc(-c5ccc6ccn(C)c6c5)ccc4OC)ncnc3cc2OC)C1 [Example 34, 1-(3-((7-methoxy-4-((2-methoxy-5-(1-methyl-1H-indol-6-yl)phenyl)amino)quinazolin-6-yl)oxy)azetidin-1-yl)prop-2-en-1-one] | 150 to 1000
≤ 150 | C=CC(=O)N1CC(Oc2cc3c(Nc4cc(-c5ccoc5C)ccc4OC)ncnc3cc2OC)C1 [Example 51, 1-(3-((7-methoxy-4-((2-methoxy-5-(2-methylfuran-3-yl)phenyl)amino)quinazolin-6-yl)oxy)azetidin-1-yl)prop-2-en-1-one] | ≤ 150
